Measurements: patent US8790653B2, “Peptide inhibitors for mediating stress responses” (Yeda Research and Development Co. Ltd., priority 2004, dated 2014)
Where no end group is shown, it is not given here. [ ]: non-standard residue; d: D form.

What was measured:
L12 cells with p53 = experiment: Hyperthermia-induced cell death in L12 cells with active p53 (trypan blue); format: cell-based; settings: 2 hours at 42° C., peptide 100 μg/ml
Procedure: The selected candidate peptides were tested for their ability to interfere with the p53-mediated cellular stress response by testing their capacity to inhibit the response to hyperthermia of the L12 cell line (Wolf, 1984), which lacks endogenous p53 activity and had been stably transfected with the p53 gene or a control vector. In these cells, p53 activity induces growth arrest and cell survival rather than apoptosis in response to hyperthermia (Nitta, 1997).
The amount of cell death was assessed by staining the cells with the vital dye trypan blue (Sigma) and counting the ratio of dead/live cells per visual field with a light microscope.
incubation for 2 hours at 42° C. induced death of all cells that lacked p53 and, in contrast, transient growth arrest and survival of about 80% of the cells with active p53. Four peptides, designated Stressin-1 to −4 (for STress RESponse Specific peptide INhibitor), were identified that at concentrations of 100 μg/ml inhibited p53-mediated growth arrest after hyperthermia and induced death of almost all cells with active p53, which is the response of L12 cells that lack p53 activity (Table 1); the peptide sequences are shown in Table 2.

L12 cells = experiment: Cisplatin-induced p53-mediated cell death of L12 cells (DNA content, propidium iodide, FACS); format: cell-based; settings: 50 μM Cisplatin, 48 hours
Procedure: L12 cells were treated for 48 hours with 50 μM of the DNA-damaging agent Cisplatin and p53-mediated cell death was determined by measuring the DNA content of cells stained with propidium iodide (FIG. 1). Cells incubated in the absence of peptide responded to Cisplatin treatment with p53-mediated cell death.

[1] = Ethanol toxic stress in primary hepatocyte cultures (trypan blue exclusion); format: cell-based; settings: primary hepatocyte cultures
Procedure: (§1) To learn whether Stressin peptide may protect from toxic stress, primary hepatocyte cultures were incubated with or without ethanol at a concentration of 0.6%, and with 50 μM Stressin-1 or without peptide. After 48 hours, the numbers of dead and alive cells were determined by trypan blue exclusion (Table 3).

[2] = tested on: primary hepatocyte cultures; experiment: as above; format: cell-based; settings: with 0.6% ethanol; 50 μM peptide; 48 hours
Procedure: as §1

BALB/c mice = experiment: Whole body γ-irradiation of BALB/c mice (radiation disease); format: in vivo; settings: 6.5 Gy, 500 μg/mouse intraperitoneally one hour after irradiation
From the text: To test whether Stressin peptide may protect an organism from death by excessive p53 activation and tissue failure by subjecting BALB/c mice to whole body […] (6.5 Gy). A retro-inverso peptide was used to determine whether prolonged in vivo half-life would give an advantage (see Example 6); retro-inverso peptides are resistant to proteases and consist of D-amino acids in reversed order, resulting in an altered peptide backbone but unchanged orientation of the side chains (Van Regenmortel, 1998).
BALB/c mice were subjected to whole body γ-irradiation (6.5 Gy). One hour after irradiation, the mice received intraperitoneally either Stressin-1 (n=7; SEQ ID NO:1) or a modified, retro-inverso Stressin-1 peptide (n=7; SEQ ID NO:5), both at a concentration of 500 μg/mouse, or a sham injection with saline (n=6). The retro-inverso peptide was used to determine whether prolonged in vivo-half-life would give an advantage.

DLSTDALHYRTA [Stressin-2]
Incidence of cell death induced by hyperthermia (L12 cells with p53): 90% | cells rescued from p53-mediated cell death (L12 cells): 25%

HPTNQQSLWRWP [Stressin-3]
Incidence of cell death induced by hyperthermia (L12 cells with p53): 80%

LPPLPYP [Stressin-1, LPPLPYP]
viability at 48 h, 50 µM [1]: 100% | Survival of hepatocytes [2]: 20%

PYPLPPL ([dP][dY][dP][dL][dP][dP][dL]; also: retro-inverso) [modified Stressin-1 peptide, retro-inverso Stressin-1 peptide, D-amino acids in reversed order]
mice dead (BALB/c mice; after 17 days): 29% | mice recovered from radiation disease (BALB/c mice; after 40 days): 57%

SSLSVDYPTRYP [Stressin-4]
Incidence of cell death induced by hyperthermia (L12 cells with p53): 80%
